The text below walks through data of US20260365698A1, “STAPLED PEPTIDES FOR SENSITIZATION OF CANCER TO TREATMENT” (Purdue Research Foundation, priority 2022, published 2026).

The subject of one series is proteinase K. Nature of the series: Proteinase K peptide stability assay. The note with it: 10 μg/mL proteinase K. The procedure: Data are from three independent replicates with standard error indicated. Scale bar indicates 50 μm.
Peptide stability assays were performed using the protocols described in Cromm et al., Protease-resistant and cell-permeable double-stapled peptides targeting the Rab8a GTPase, ACS Chemical Biology 11(8): 2375-2382 (2016). Briefly, 55 μM of peptide was incubated with 10 μg/mL proteinase K for the indicated timepoints. At the end of each time point, 50 μL of the reaction mixture were quenched in 100 μL of a 1:1 mixture acetonitrile/water+1% formic acid (FA). Samples were injected and analyzed on a Triple quad. Analysis was done using an Agilent Technologies 1200 Series attached to an Agilent Technologies 6460 Triple Quad LC/MS. Analysis was performed with a ZORBAX XDB-C18 […], 2.1×50 mm column (Agilent Technologies, Inc., Santa Clara, CA). Eluent A: H2O with 0.1% FA. Eluent B: MeCN with 0.1% FA. Purity analysis utilized the gradient as follows: (A:B, 0.3 mL/min): 95:5, 0 minutes; 95:5, 1 minute; 5:95, 5 minutes; 5:95, 8 minutes: 95:5, 8.5 minutes; 95:5, 12.5 minutes.

Another series has as its system A549 cells. Nature of the series: Confocal microscopy of FITC-labeled peptides, cell permeability. The class given is cell-based. Particulars: FITC-labeled peptide, 100 μM, 90 minutes, A549 cells. Here is the method: To determine whether this was a result of poor cell permeability by compounds N2S and N3S, fluorophore labeled versions of these peptides were generated, and confocal microscopy was used to determine the abilities of these peptides to enter cells (FIG. 5C).
Briefly, A549 cells at 9.5×10^4 cells/ml in 600 μl media were plated on 10 mm glass-bottomed, 24-well plates (Chemglass Life Sciences Cell Culture Plate, 24-Well, Fisher Scientific, Waltham, MA) and cultured for overnight at 37 °C, 5% CO2, in complete growth medium (RPMI supplemented with 10% fetal calf serum, L-glutamine, and non-essential amino acids). The next day, cells were treated with fresh, pre-warmed complete growth medium supplemented with the desired FITC-labeled peptide or DMSO vehicle control at a final concentration of 100 μM FITC labeled peptide and 1% DMSO. After 90 minutes of treatment, cells were washed three times in warm PBS to remove excess peptide from the cell surface and left in modified Krebs-Ringer buffer solution [KRBH: 134 mM NaCl. 3.5 mM KCl. 1.2 mM KH2PO4, 0.5 mM MgSO4, 1.5 mM CaCl2), 5 mM NaHCO3, 10 mM HEPES (pH 7.4)] containing Hoechst stain at 1 μg/ml. Cells were immediately analyzed under a Nikon A1 confocal microscope (Resonant). The images were taken at 20× magnification with fluorescence excitation wavelengths at 409 for the Hoechst and 488 for the FITC. Images were processed using NIS-Elements AR. Dietrich et al., Cell permeable stapled peptide inhibitor of Wnt signaling that targets 0-catenin protein-protein interactions, Cell Chemical Biology 24(8): 958-968.e5 (2017); Dougherty et al., Enhancing the cell-permeability of stapled peptides with a cyclic cell-penetrating peptide, J Medicinal Chemistry 62(22): 10098 (2019).

In a further series the test system is Neh1 domain of NRF2. Particulars: cited from earlier work.
Series [1] concerns non-small cell lung cancer (NSCLC) cells. The note with it: cited from earlier work.
In series [2] the test system is MAFG-NRF2 protein complex. Particulars: cited from earlier work.
For the next series, the target named is T1, His-MafG.
T1 chain: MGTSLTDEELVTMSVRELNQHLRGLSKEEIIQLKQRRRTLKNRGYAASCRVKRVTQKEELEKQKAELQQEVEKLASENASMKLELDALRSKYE
Briefly: SPR, pH 7.5.

Bridge positions count the residues as written; N and C are the ends. Square brackets hold non-standard residues; d marks the D form. Ends that are not written are not given here. Peptide text beside a SMILES is read from it. S5 = C=CCCC[C@](C)(N)C(=O)O

On to Ac-DEKEKLLKEKGENDKS-NH2 [N3], for which the “degradation of unstapled peptide at shortest timepoint” value with proteinase K (30 minutes) is listed as “completely degraded”. As to Ac-IVELEQDLDHLKDEKE-NH2 [N1], the cellular permeability result with A549 cells is recorded as “poor”.

As to `CC(=O)N[C@@H](CC(=O)O)C(=O)N[C@@H](CC(C)C)C(=O)N[C@@H](CC(=O)O)C(=O)N[C@@H](Cc1c[nH]cn1)C(=O)N[C@@H](CC(C)C)C(=O)N[C@@]1(C)CCCC=CCCC[C@@](C)(C(=O)N[C@@H](CCCCN)C(=O)N[C@@H](CC(C)C)C(=O)N[C@@H](CC(C)C)C(=O)N[C@@H](CCCCN)C(=O)N[C@@H](CCC(=O)O)C(=O)N[C@@H](CCCCN)C(N)=O)NC(=O)[C@H](CCCCN)NC(=O)[C@H](CCC(=O)O)NC(=O)[C@H](CC(=O)O)NC1=O` [N2S] (Ac-DLDHL[S5]DEK[S5]KLLKEK-NH2; staple 6-10), the “time at which significant degradation starts” value in the series on proteinase K (55 μM peptide) is 40 min. In addition, the “cellular and nuclear permeability” value in the series on A549 cells is “good”. Regarding `CC(=O)N[C@@H](CC(=O)O)C(=O)N[C@@H](CCC(=O)O)C(=O)N[C@@H](CCCCN)C(=O)N[C@@H](CCC(=O)O)C(=O)N[C@@H](CCCCN)C(=O)N[C@@H](CC(C)C)C(=O)N[C@@]1(C)CCCC=CCCC[C@@](C)(C(=O)N[C@@H](CCC(=O)O)C(=O)N[C@@H](CC(N)=O)C(=O)N[C@@H](CC(=O)O)C(=O)N[C@@H](CCCCN)C(=O)N[C@@H](CO)C(N)=O)NC(=O)[C@H](CCCCN)NC(=O)[C@H](CCC(=O)O)NC(=O)[C@H](CCCCN)NC1=O` [N3S] (Ac-DEKEKL[S5]KEK[S5]ENDKS-NH2; staple 7-11), the “degradation by proteinase K” value in the series with proteinase K (for up to 24 hours, 55 μM peptide) was “no significant degradation”. In the series with A549 cells, the “accumulation in the nucleus” value is given as “very little to no accumulation” and the cellular permeability entry is given as “minimal”. In the case of `Cc1ccccc1C(=O)N1CCc2cc(-c3nc(NC(=O)Cc4ccc5c(c4)OCO5)sc3C)ccc21` [ML-385], the “binding to the Neh1 domain of NRF2” value in the series on Neh1 domain of NRF2 is on record as “binds to the Neh1 domain of NRF2”. Further, the “cytotoxicity in combination with platinum-based drugs, doxorubicin or taxol” value in series [1] is “substantially enhances cytotoxicity”. In series [2], the “binding of MAFG-NRF2 complex to regulatory DNA and downstream target gene expression” value was “inhibiting downstream target gene expression”. Take IVELE[S5]DLD[S5]LKDEKE (staple 6-10; also: biotin-labeled) [N1S (biotin-labeled)]: binding with His-MafG was characterised by a dissociation constant (Kd) of 337 nM.
